What was measured:
Assay type in all cases: in vivo, patients
[1] = system: advanced colorectal cancer; test: Retrospective analysis of OPTIMOX1: effect of oxaliplatin reintroduction on overall survival (Cox model, centers grouped by reintroduction class)
Description: A retrospective analysis was used to evaluate the effect of oxaliplatin reintroduction on overall survival. The percentage of patients with oxaliplatin reintroduction was calculated in each center regardless of treatment arm, number of patients, or whether reintroduction was per protocol. A Cox model was used to analyze the impact of oxaliplatin reintroduction on survival, after adjustment for all baseline covariates, and using random effects to account for the fact that the percentage of patients with oxaliplatin reintroduction was estimated in each center. Centers were grouped by percentage of oxaliplatin reintroduction into 4 reintroduction classes defined according to the percentage of patients with oxaliplatin reintroduction (0, 1-20, 21-40, and >40). The hazard ratio (HR; adjusted for all baseline covariates) was calculated for each reintroduction class, using centers with no reintroduction (0%) as the reference group.

[2] = system: advanced colorectal cancer; test: OPTIMOX1 study: FOLFOX4 until progression (arm A) versus stop-and-go FOLFOX7 (arm B); settings: OPTIMOX1, previously untreated advanced colorectal cancer
Description: The OPTIMOX1 study examined the effect of oxaliplatin reintroduction in previously untreated patients with advanced colorectal cancer. The details of this study have been recently published by Tournigand et al., J. Clin. Oncol. (January 2006);24:394, and they are incorporated herein by reference. Two different FOLFOX regimens were used in the study: FOLFOX4 and FOLFOX7. The FOLFOX4 regimen comprises oxaliplatin 85 mg/m^2 given as a 2-hour infusion on day 1, leucovorin 200 mg/m^2 given as a 2-hour infusion on days 1 and 2, and 5-FU given on days 1 and 2 as a bolus of 400 mg/m^2 that is followed directly by a 22-hour infusion of 5-FU 600 mg/m^2 on each day. The oxaliplatin infusion on day 1 is given concurrently with leucovorin, and on each day the 5-FU bolus directly follows the 2-hour infusion of leucovorin. FOLFOX7 comprises oxaliplatin 130 mg/m^2 and leucovorin 200 mg/m^2 given concurrently as 2-hour infusions on day 1, followed directly by a 46 hour infusion of 5-FU at 2400 mg/m^2. In some patients, the I-leucovorin isomer was used, but at half the mg/m^2 dosage for dI-leucovorin.
Patients were randomized to either FOLFOX4 every 2 weeks until progression (arm A), or FOLFOX7 for 6 cycles, maintenance with leucovorin-5-FU but without oxaliplatin for 12 […], and reintroduction of FOLFOX7 (arm B). […]

[3] = OPTIMOX1 study: neurotoxicity; settings: stopping oxaliplatin after the sixth cycle
Text: Sensory neurotoxicity can be measured using known techniques and graded using defined criteria. For example, the National Cancer Institute Common Toxicity Criteria (NCI CTC) version 2.0 can be used to grade sensory neuropathy. Using these criteria, an NCI grade of 0 means that there is no change associated with the treatment. NCI grade 1 indicates the loss of deep tendon reflexes or paresthesia (including tingling) not interfering with function. […] NCI Grade 3 indicates sensory loss or paresthesia that interferes with activities of daily living. NCI Grade 4 is reserved for permanent sensory loss that interferes with function.
The OPTIMOX1 study examined the effect of oxaliplatin reintroduction in previously untreated patients with advanced colorectal cancer. The details of this study have been recently published by Tournigand et al., J. Clin. Oncol. (January 2006);24:394, and they are incorporated herein by reference. Two different FOLFOX regimens were used in the study: FOLFOX4 and FOLFOX7. The FOLFOX4 regimen comprises oxaliplatin 85 mg/m^2 given as a 2-hour infusion on day 1, leucovorin 200 mg/m^2 given as a 2-hour infusion on days 1 and 2, and 5-FU given on days 1 and 2 as a bolus of 400 mg/m^2 that is followed directly by a 22-hour infusion of 5-FU 600 mg/m^2 on each day. […]

O=C1[O][Pt]2([NH][C@@H]3CCCC[C@H]3[NH]2)[O]C1=O [oxaliplatin]
Median survival ([1]; >40% reintroduction class): 23 months
impact of percentage of patients with oxaliplatin reintroduction on survival ([1]; after adjustment for all other factors, p<0.001): highly significant impact on survival
impact of reintroduction class on survival ([1]; after adjustment for all other factors, p=0.02): significant impact on survival
Adjusted survival hazard ratio (95% C.I.) ([1]; centers with 0% patients with oxaliplatin reintroduction (reference group)): 1.00 (reference)
Adjusted survival hazard ratio (95% C.I.) ([1]; centers with 1–20% patients with oxaliplatin reintroduction, versus 0% reference): 0.91 (0.56–1.48)
Adjusted survival hazard ratio (95% C.I.) ([1]; centers with 21–40% patients with oxaliplatin reintroduction, versus 0% reference): 0.78 (0.50–1.21)
Adjusted survival hazard ratio (95% C.I.) ([1]; centers with >40% patients with oxaliplatin reintroduction, versus 0% reference): 0.59 (0.38–0.91)
Median survival ([1]; reference group (0% reintroduction)): 15 months
prognostic value of oxaliplatin reintroduction for overall survival [2]: independent prognostic factor for improved overall survival
risk of grade 3 or 4 neurotoxicity [3]: reduced risk

— patent US20080085881A1, “Stop-and-go oxaliplatin treatment regimens” (priority 2006, published 2008)
